Assay results reported in article PMC4154066 (Chemical research in toxicology, 2013).

Assays:
HepG2 cells [1] = experiment: Oxygen consumption rate; format: cell-based, Human; conditions: for Relative percentage OCR 30 Sec: HepG2, 30 sec after compound at its MMP IC50; for Relative percentage OCR 30 Sec / Relative percentage OCR 1 h: basal OCR = 100%, mean ± SD; for Relative percentage OCR 1 h: HepG2, 1 h after compound at its MMP IC50; for Effect on OCR / FCCP-uncoupled OCR (in words): HepG2, compound at its MMP IC50, 30 sec and 1 h, then FCCP
caspase 3/7 = conditions: HepG2, 16 h; cited from earlier work
HepG2 cells [2] = experiment: cells; format: cell-based, Human
caspase 9 = conditions: HepG2, 5 h; cited from earlier work
[3] = test system: mitochondrial membrane potential in HepG2 cells; experiment: MMP assay, powder compound confirmation, fluorescence plate reader; format: cell-based, Human

Row | SMILES | Relative percentage OCR 30 Sec (HepG2 cells [1]) [%] | Relative percentage OCR 1 h (HepG2 cells [1]) [%] | Effect on OCR / FCCP-uncoupled OCR (in words) (HepG2 cells [1]) | induction of caspase 3/7 (caspase 3/7) | Compound potency (IC50) LDH Release 1 h (HepG2 cells [2]; HepG2, 1 h treatment, mean ± SD, 3 independent experiments) | Compound potency (IC50) LDH Release 5 h (HepG2 cells [2]; HepG2, 5 h treatment, mean ± SD, 3 independent experiments) | IC50 (HepG2 cells [2]; Homo sapiens, HepG2, 5 h, read-out: Compound potency (IC50) LDH Release 5 h) [µM] | activation of caspase 9 (caspase 9) | Compound potency (IC50) Fluorescence readout 5 h ([3]; HepG2, powder compound confirmation, 5 h, mean ± SD, 4 independent experiments) | Emax ([3]; Homo sapiens, HepG2, 5 h, read-out: efficacy (maximal response)) [%]
1 | CN(C)c1ccc(C(=C2C=CC(=[N+](C)C)C=C2)c2ccc(N(C)C)cc2)cc1 [Hexamethyl-p-rosaniline chloride] | 132.56 ± 3.88 | 105.01 ± 1.65 | immediate uncoupling | induced caspase 3/7 | Inconclusive | cytotoxic | 56.1 | seems to activate caspase 9 | – | –
2 | COc1cc(C2Oc3cc([C@H]4Oc5cc(O)cc(O)c5C(=O)[C@@H]4O)ccc3OC2CO)ccc1O (stereo partly shown) [Silibinin] | 92.67 ± 0.69 | 95.66 ± 0.46 | significantly suppressed the FCCP uncoupled rates | – | – | – | – | – | weakly active | 38.1
